Measured values published in patent EP2181589A1, “Neurotoxic sterol glycosides” (Shaw, Christopher Ariel, priority 2008, dated 2010).
Entries after “also recorded” stand apart in the source; their conditions may differ. Marks after values point to notes of the source that are not given here.

How the values were obtained:
Format in all cases: in vivo, CD-1 mice
[1] = tested on: Motor Neurons per lumbar cord section; assay: Motor neuron counts, cresyl violet (Nissl) histology
Procedure: (§1) The synthetic SG was mixed with finely ground Purina Chow mouse pellets (Mouse Diet™, Purina) to create the experimental pellets with a SG content of 1000 µg per pellet. Dry materials were blended with a sterile silicon spatula. For every 5 g of standard feed, 2.5 mL of doubly-distilled water (dd)H2O was added and the dough was kneaded and round up into pellets. A single sterol glucoside containing pellet was placed in the feeding tray each morning before the addition of regular mouse chow (ad libitum). All experimental pellets were entirely consumed by the mice each day. Control mice were fed standard mouse chow pellets of identical weight with no additives. SG feeding was conducted daily for 15 weeks and mice were behaviorally monitored until sacrifice at 35 weeks (time point 1) or 52 weeks (time point 2).
Mice were sacrificed for histological analysis at 35 weeks (35.9-48.6 g) and 52 weeks (41.2-51.4 g) of age. Age-matched control mice from each time point were included for comparison. The mice were deeply anaesthetized in a chamber with 4% isoflurane and perfused intracardially with filtered PBS (pH 7.4) until the effluent was cleared of blood (2 minutes), followed by perfusion with cold (4°C) 4% paraformaldehyde (PFA) in 0.1 M phosphate buffer (pH 7.4) for 5 minutes (30 mL). The PBS and the PFA were delivered through separate sterile platinum-cured silicon tubing (Cole-Parmer Canada Inc., Montreal, Canada) and peristaltic pumps (MasterFlex peristaltic pump, Cole-Parmer Canada Inc., Montreal, Canada). The brains and spinal cords were dissected out and fixed overnight at 4°C and equilibrated in increasing concentrations of sucrose in phosphate-buffered saline, pH 7.4 (10, 20, and 25%) over a 3-day period. Complete equilibration of the tissues was taken as the moment the tissues sank to the bottom of the scintillation tubes filled with 25% sucrose. After equilibration, the spinal cord and brain specimens were set in molds (Tissue-tek Cryomold, Sakura Finetek, USA, Torrance, CA) with an optimum cutting temperature (OCT) gel-sucrose mixture frozen by immersion in an isopentane (BDH Laboratory Supplies, UK) bath on dry ice and stored at -80°C until processing.
Cryosectioning of tissue: Frozen, coronal sections (spinal cord: 20 µm, brain: 30 µm) were cut with a Hacker-Bright cryostat (Hacker Instruments and Industries Inc., Winnsboro, SC) and mounted on charged glass slides (Superfrost Plus; Fisher Scientific, Pittsburgh, PA) so that adjacent CNS sections on each slide represented regions 100 µm and 150 µm apart for spinal cord and brain, respectively ((Tabata, Wilson et al. 2008)). The slides were stored at -80°C until histological processing. To ensure CNS sections were matched between animals, anatomical landmarks were verified using a mouse brain atlas (Paxinos and Franklin 2001).
Histology and quantification of motor neurons: Spinal cord and brain sections from each animal were stained for Nissl body substance. At room temperature (RT), sections were rinsed in a graded ethanol series (95%: 15 min; 70%: 1 min; 50%: 1 min) to rehydrate and remove lipids and fixation chemicals from the tissue. The tissue were then rinsed for 2 min in two exchanges of distilled water, stained with twice-filtered cresyl violet stain (1.25 g cresyl violet acetate, 0.75 mL glacial acetic acid to 250 mL distilled water), rinsed in distilled water (1 minute), and then dehydrated (50% ethanol: 1 minute; 1% glacial acetic acid-70% ethanol: 2 minutes; 95% ethanol: 2 minutes; 95% ethanol: 3 dips; 100% ethanol: 1 minute) and cleared in xylene. The slides were then cover-slipped in Entellen mountant (Merck, Darmstadt, Germany). The tissue mounted slides were selected with a randomized start and sampled starting from the lumbar 2 region to the 6th. […]

[2] = tested on: Phosphorylated tau aggregates; assay: Tau immunohistochemistry; design: key to Phosphorylated tau aggregates: - = not present; + = present; conditions: for Phosphorylated tau aggregates: SG-fed
Procedure: as §1
(§2) Tissue-mounted slides were processed for fluorescence microscopy as follows: Sections were rinsed in coplin jars for 45 minutes at room temperature (RT) in three changes of PBS. Sections were then incubated at RT for 30 minutes in a blocking permeabilization solution made of 5% normal goat serum (NGS), 5% normal rabbit serum (NRS) or 5% BlokHen II (Aves Labs, Inc., Tigard, OR), 0.05% Triton X-100 and PBS. Subsequently, the blocking solution was tipped off and the slides were rinsed in PBS for 2 minutes. […]

[3] = tested on: Dopaminergic cells Tyrosine Hydroxylase; assay: Tyrosine hydroxylase immunohistochemistry; conditions: SG-fed animals, either time-point
Procedure: as §1, §2

[4] = SG-fed vs control, time-point 1, 35 wk
[5] = SG-fed vs control, time-point 2, 52 wk
[6] = SG-group over time, 35 to 52 wk

## CCC(C=CC(C)C1CCC2C3CC=C4CC(OC5OC(CO)C(O)C(O)C5O)CCC4(C)C3CCC12C)C(C)C (stereo not shown) [SG]
[1]; [4]
  Chromatolytic α-MN: Chromatolytic α-MN (ns)
  Healthy α-MN: Healthy α-MN (ns)
  Pyknotic α-MN: Pyknotic α-MN (ns)
  Total γ-MN: Total γ-MN (ns)
[1]; [5]
  Chromatolytic α-MN: Chromatolytic α-MN (ns)
  Pyknotic α-MN: Pyknotic α-MN (ns)
  Total γ-MN: Total γ-MN (ns)
[1]; SG-fed vs control, time-point 2, 52 wk, table cell prints no unit
  Total α-MN: Total α-MN: -47*
[1]; [6]
  Chromatolytic α-MN: (control group & SG-group independently over time) (ns)
  Pyknotic α-MN: (control group and SG-group independently over time) (ns)
  Total γ-MN: (control group and SG-group independently over time) (ns)
[2]; SG-fed group, time-point 2, 52 wk
  Phosphorylated tau aggregates, animals affected: 2/8
[2]; SG-fed mice, none in non-treated mice
  Phosphorylated Tau aggregates: induced accumulation of phosphorylated tau; also recorded: observed
[2]; time-point 1, 35 wk
  Phosphorylated tau aggregates: -
[2]; time-point 2, 52 wk
  Phosphorylated tau aggregates: +
[3]
  decrease in TH optical density, striata: not significant
